Reference: ChEMBL document CHEMBL3414567, “Novel hybrid DHPM-fatty acids: synthesis and activity against glioma cell growth in vitro” (Eur J Med Chem, 2015)
Activity calls are given as the source filed them. The rule behind the calls is not given here.

Tests used:
[1] = system: C6; test: Cytotoxicity against rat C6 cells assessed as reduction of cell viability at 50 uM after 24 hrs by MTT assay; assay type: functional, cell-based
[2] = Cytotoxicity against human U138MG cells assessed as reduction of cell viability at 50 uM after 24 hrs by MTT assay relative to control; assay type: functional, U138-MG
[3] = Cytotoxicity against Wistar rat organotypic hippocampal slice cultures assessed as neural cell death at 200 uM after 24 hrs by propidium iodide staining-based fluorescence image analysis; design: species or system Hippocampus
[4] = system: C6; test: Cytotoxicity against rat C6 cells assessed as reduction of cell viability after 24 hrs by MTT assay; assay type: functional, cell-based
[5] = system: U138-MG; test: Cytotoxicity against human U138MG cells assessed as reduction of cell viability after 24 hrs by MTT assay; assay type: functional, cell-based
[6] = system: C6; test: Cytotoxicity against rat C6 cells assessed as reduction of cell viability at 25 uM after 24 hrs by MTT assay; assay type: functional, cell-based
[7] = system: C6; test: Cytotoxicity against rat C6 cells assessed as growth inhibition at 150 uM relative to control; assay type: functional; settings: read-out: GI
[8] = Cytotoxicity against human U138MG cells assessed as growth inhibition at 150 uM relative to control; assay type: functional; settings: U138-MG, read-out: GI
[9] = Cytotoxicity against human U138MG cells assessed as reduction of cell viability at 10 uM after 24 hrs by MTT assay relative to control; assay type: functional, U138-MG

Row | SMILES | Activity [1] | Activity [2] [%] | Activity [3] | other results
1 | CCCCCCCC/C=C\CCCCCCCCOC(=O)C1=C(C)NC(=S)NC1c1cccc(O)c1 (stereo unspecified) | Active | 70 | Non-toxic | –
2 | CCCCCCCC/C=C\CCCCCCCCOC(=O)C1=C(C)NC(=O)NC1c1ccccc1 (stereo unspecified) | – | – | Non-toxic | Activity [4]: Dose-dependent effect; Activity [5]: Dose-dependent effect
3 | CCCCCCCC/C=C\CCCCCCCCOC(=O)C1=C(C)NC(=O)NC1c1cccc(O)c1 (stereo unspecified) | Active | 70 | Non-toxic | Activity [6]: Active
4 | CCOC(=O)C1=C(C)NC(=S)NC1c1cccc(O)c1 (stereo unspecified) [MONASTROL] | – | – | – | inhibition of growth at 150 µM [7]: 30%; inhibition of growth at 150 µM [8]: 30%
5 | CCCCCCCCCCCCCCCCOC(=O)C1=C(C)NC(=S)NC1c1cccc(O)c1 (stereo unspecified) | Active | 70 | Non-toxic | Activity [6]: Active
6 | CCCCCCCCCCCCCCCCOC(=O)C1=C(C)NC(=O)NC1c1cccc(O)c1 (stereo unspecified) | Active | 70 | Non-toxic | Activity [9]: 50%
7 | CCCCCCCCCCCCCCCCCCOC(=O)C1=C(C)NC(=S)NC1c1cccc(O)c1 (stereo unspecified) | inactive | – | – | –
